test system: B16; experiment: Ratio of propargyl amine IC50 to compound IC50 for mouse B16 cells after 48 hrs by MTT assay; assay type: functional; conditions: not given

Row | Compound | Ratio IC50
1 | C#CC(=O)Nc1cccc(C#C)c1 | 127

test system: B16; experiment: Cytotoxicity against mouse B16 cells after 48 hrs by MTT assay; assay type: functional, cell-based; conditions: B16, 48 h

Row | Compound | IC50 [µM]
2 | C#CCNC(=O)c1cn(CCOC(C)=O)nn1 | > 100
3 | O=C(Nc1ccc(-c2cn(Cc3ccccc3)nn2)cc1)c1cn(Cc2ccccc2)nn1 | > 100
4 | CCOC(=O)Cn1cc(-c2ccc(NC(=O)c3cn(Cc4ccccc4)nn3)cc2)nn1 | 36.3
5 | CC(=O)OCCn1cc(-c2ccc(NC(=O)c3cn(Cc4ccccc4)nn3)cc2)nn1 | 13.2
6 | CCOC(=O)Cn1cc(C(=O)Nc2ccc(-c3cn(CCOC(C)=O)nn3)cc2)nn1 | > 100
7 | CC(=O)OCCn1cc(C(=O)Nc2ccc(-c3cn(Cc4ccccc4)nn3)cc2)nn1 | > 100
8 | CCOC(=O)Cn1cc(-c2ccc(NC(=O)c3cn(CCOC(C)=O)nn3)cc2)nn1 | > 100
9 | CC(=O)OCCn1cc(C(=O)Nc2ccc(-c3cn(CCOC(C)=O)nn3)cc2)nn1 | > 100
10 | O=C(Nc1ccccc1)c1cn(Cc2ccccc2)nn1 | 93
11 | CCOC(=O)Cn1cc(C(=O)Nc2ccccc2)nn1 | > 100
12 | CC(=O)OCCn1cc(C(=O)Nc2ccccc2)nn1 | > 100
13 | C#Cc1cccc(NC(=O)c2cn(Cc3ccccc3)nn2)c1 | 14.5
14 | C#Cc1cccc(NC(=O)c2cn(CC(=O)OCC)nn2)c1 | 91
15 | C#Cc1cccc(NC(=O)c2cn(CCOC(C)=O)nn2)c1 | 25.1
16 | C#Cc1ccc(NC(=O)c2cn(Cc3ccccc3)nn2)cc1 | > 100
17 | C#Cc1ccc(NC(=O)c2cn(CC(=O)OCC)nn2)cc1 | > 100
18 | C#Cc1ccc(NC(=O)c2cn(CCOC(C)=O)nn2)cc1 | 79
19 | O=C(NCc1cn(Cc2ccccc2)nn1)c1cn(Cc2ccccc2)nn1 | 0.3
20 | CCOC(=O)Cn1cc(CNC(=O)c2cn(Cc3ccccc3)nn2)nn1 | 35
21 | CC(=O)OCCn1cc(CNC(=O)c2cn(Cc3ccccc3)nn2)nn1 | 28

Row | Compound | IC50 [µM]
22 | O=C(Cn1cc(C(=O)NCc2cn(Cc3ccccc3)nn2)nn1)OCc1ccccc1 | 22.4
23 | CCOC(=O)Cn1cc(CNC(=O)c2cn(CC(=O)OCc3ccccc3)nn2)nn1 | > 100
24 | CC(=O)OCCn1cc(CNC(=O)c2cn(CC(=O)OCc3ccccc3)nn2)nn1 | > 100
25 | CC(=O)OCCn1cc(C(=O)NCc2cn(Cc3ccccc3)nn2)nn1 | > 100
26 | CCOC(=O)Cn1cc(CNC(=O)c2cn(CCOC(C)=O)nn2)nn1 | > 100
27 | CC(=O)OCCn1cc(CNC(=O)c2cn(CCOC(C)=O)nn2)nn1 | > 100
28 | O=C(Nc1cccc(-c2cn(Cc3ccccc3)nn2)c1)c1cn(Cc2ccccc2)nn1 | 4.5
29 | CCOC(=O)Cn1cc(-c2cccc(NC(=O)c3cn(Cc4ccccc4)nn3)c2)nn1 | 21
30 | CC(=O)OCCn1cc(-c2cccc(NC(=O)c3cn(Cc4ccccc4)nn3)c2)nn1 | 25.1
31 | CCOC(=O)Cn1cc(C(=O)Nc2cccc(-c3cn(Cc4ccccc4)nn3)c2)nn1 | 20.4
32 | CCOC(=O)Cn1cc(C(=O)Nc2cccc(-c3cn(CC(=O)OCC)nn3)c2)nn1 | > 100
33 | CCOC(=O)Cn1cc(C(=O)Nc2cccc(-c3cn(CCOC(C)=O)nn3)c2)nn1 | > 100
34 | CC(=O)OCCn1cc(C(=O)Nc2cccc(-c3cn(Cc4ccccc4)nn3)c2)nn1 | > 100
35 | CCOC(=O)Cn1cc(-c2cccc(NC(=O)c3cn(CCOC(C)=O)nn3)c2)nn1 | 63
36 | CC(=O)OCCn1cc(C(=O)Nc2cccc(-c3cn(CCOC(C)=O)nn3)c2)nn1 | > 100
37 | C#CCNC(=O)C#C | 38
38 | C#CC(=O)Nc1cccc(C#C)c1 | 0.3
39 | C#CC(=O)Nc1ccc(C#C)cc1 | 6.3
40 | C#CCNC(=O)c1cn(Cc2ccccc2)nn1 | 65
41 | C#CCNC(=O)c1cn(CC(=O)OCc2ccccc2)nn1 | > 100

From ChEMBL document CHEMBL2311456, “Synthesis and in vitro evaluation of potential anticancer activity of mono- and bis-1,2,3-triazole derivatives of bis-alkynes” (Eur J Med Chem, 2013)
